Results: US20250268877A1 (BIOGEN MA INC., priority 2020, published 2025)
pIC50: −log10 of the molar value. In brackets after ≈: the same amount, converted by molar mass.

Assays:
[1] = Kinetic solubility assay (CLND), potassium phosphate buffer pH 6.8; format: physicochemical; conditions: pH 6.8, 2% DMSO, 24 hours at ambient temperature; for solubility at 24 h: potassium phosphate buffer, pH 6.8, aqueous buffer, kinetic from dmso stock
Excerpt: • Inject filtrates into the nitrogen detector for quantification on Analiza's Automated Discovery Workstation (ADW). • Solubility results generated in μg/mL

[2] = target: MDR1 (Homo sapiens (Human), UniProt P08183); test: MDR1-MDCK assay (apparent permeability, efflux ratio); format: in vitro ADME; conditions: human, MDCK-MDR1, 1 μM, read-out: MDR1-MDCK_Efflux Ratio
Sequence of MDR1 (P08183 whole entry): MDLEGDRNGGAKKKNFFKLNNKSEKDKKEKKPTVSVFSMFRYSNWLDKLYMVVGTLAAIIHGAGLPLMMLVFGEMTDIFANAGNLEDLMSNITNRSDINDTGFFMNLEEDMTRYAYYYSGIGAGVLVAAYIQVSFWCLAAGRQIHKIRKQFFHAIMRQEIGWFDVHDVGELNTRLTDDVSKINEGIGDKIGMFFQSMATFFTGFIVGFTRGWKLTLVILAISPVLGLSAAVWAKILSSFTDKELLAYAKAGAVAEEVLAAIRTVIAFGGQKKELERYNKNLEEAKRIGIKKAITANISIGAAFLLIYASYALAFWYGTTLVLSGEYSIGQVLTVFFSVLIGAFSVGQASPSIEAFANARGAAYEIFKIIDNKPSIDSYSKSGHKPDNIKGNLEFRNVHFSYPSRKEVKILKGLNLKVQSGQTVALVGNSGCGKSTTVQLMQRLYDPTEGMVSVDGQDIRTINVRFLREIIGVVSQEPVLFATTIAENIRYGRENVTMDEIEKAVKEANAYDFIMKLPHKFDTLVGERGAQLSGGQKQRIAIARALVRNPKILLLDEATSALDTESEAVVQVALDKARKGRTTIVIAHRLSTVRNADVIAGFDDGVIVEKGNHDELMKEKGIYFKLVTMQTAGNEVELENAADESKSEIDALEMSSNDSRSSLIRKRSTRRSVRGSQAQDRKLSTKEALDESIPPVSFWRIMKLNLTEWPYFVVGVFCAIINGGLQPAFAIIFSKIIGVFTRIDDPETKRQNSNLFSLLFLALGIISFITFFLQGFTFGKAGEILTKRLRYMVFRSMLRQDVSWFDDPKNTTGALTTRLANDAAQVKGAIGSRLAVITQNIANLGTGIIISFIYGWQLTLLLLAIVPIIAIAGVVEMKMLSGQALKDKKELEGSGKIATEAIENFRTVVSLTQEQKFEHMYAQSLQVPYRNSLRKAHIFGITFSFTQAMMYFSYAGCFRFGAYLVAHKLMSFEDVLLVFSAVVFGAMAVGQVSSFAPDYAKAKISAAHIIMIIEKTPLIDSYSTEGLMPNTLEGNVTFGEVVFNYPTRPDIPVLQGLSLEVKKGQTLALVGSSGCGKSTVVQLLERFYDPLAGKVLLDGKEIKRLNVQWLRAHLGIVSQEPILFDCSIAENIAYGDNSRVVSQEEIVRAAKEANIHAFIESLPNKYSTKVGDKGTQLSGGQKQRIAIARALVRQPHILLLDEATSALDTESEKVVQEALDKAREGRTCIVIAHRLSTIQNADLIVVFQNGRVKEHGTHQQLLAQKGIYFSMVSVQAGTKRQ

[3] = target: IRAK4 (Homo sapiens (Human), UniProt Q9NWZ3); test: IRAK4 2-hour 1 mM ATP Biochemical Assay (MesoScale Detection format); conditions: 100 pM IRAK4, read-out: IRAK4 IC50
Sequence of IRAK4 (Q9NWZ3 whole entry, the tested form may be a part): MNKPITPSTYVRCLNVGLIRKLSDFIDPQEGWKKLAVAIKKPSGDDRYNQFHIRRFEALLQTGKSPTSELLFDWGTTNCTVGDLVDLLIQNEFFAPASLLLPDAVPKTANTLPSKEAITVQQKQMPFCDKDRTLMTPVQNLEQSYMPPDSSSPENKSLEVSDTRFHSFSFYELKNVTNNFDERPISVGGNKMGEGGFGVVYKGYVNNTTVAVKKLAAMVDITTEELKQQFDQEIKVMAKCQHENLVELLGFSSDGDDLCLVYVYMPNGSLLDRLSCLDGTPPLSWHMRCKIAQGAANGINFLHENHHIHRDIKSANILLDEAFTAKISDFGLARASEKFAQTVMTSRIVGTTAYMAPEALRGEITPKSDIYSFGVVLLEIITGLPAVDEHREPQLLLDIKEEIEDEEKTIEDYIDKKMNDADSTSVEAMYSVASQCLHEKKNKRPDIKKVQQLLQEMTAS
Description: The 2-hour 1 mM ATP Biochemical Assay employed a MesoScale Detection (MSD) format.
The activity was quenched with 11 μl of 70 mM EDTA, pH 8.
To detect the phosphorylated biotinylated peptide substrate, 30 μl of the quenched reaction mixture was added to equivalent wells of a 384 well streptavidin coated MesoScale plate (Meso Scale Discovery #L21SA-1). After a 1 hour incubation of the plate for 1 hour at room temperature with gentle mixing, the plate wells were washed 3 times with 50 mM Tris, pH 7.5, 150 mM NaCl, 0.02% Tween-20.
A 25 μl volume of 1:500 anti-P-Threonine Rabbit polyclonal Antibody plus 1:500 Goat-anti-Rabbit Sulfo Tag Antibody (Meso Scale Discovery R^32AB-1) in 50 mM Tris, pH 7.5, 150 mM NaCl, 0.02% Tween-20 plus 2% BSA was then added to each well. After a 1-hour incubation of the plate for 1 hour at room temperature with gentle mixing, the plate wells were washed, 3 times with 50 mM Tris, pH 7.5, 150 mM NaCl, 0.02% Tween-20.

[4] = Kpuu assay (in vivo brain-to-plasma partition, unbound); conditions: intravenous infusion 4 to 24 h, unbound drug partition coefficient; for Kp: brain (unbound) versus plasma (unbound), read-out: Brain Kpu,u
Description: For the brain-to-plasma partition coefficient (Kp) evaluation, a dosing solution was intravenously infused into animals at a constant flow rate for 4 to 24 h. Blood samples were serially collected during infusion, and CSF and brain samples were harvested at the end of infusion.
Tissue samples were typically homogenized in phosphate buffer saline (PBS) using a bead ruptor.
CSF samples were typically diluted with 8% BSA in PBS to prevent from non-specific binding. Artificial CSF (aCSF) is used as the surrogate matrix.
Calibration curves were prepared by spiking the analyte(s) into blank matrices, which were processed together with plasma, tissue homogenate and/or CSF samples by protein precipitation using a proper organic solvent (e.g. acetonitrile and methanol) containing generic analogue internal standards (e.g. verapamil, chrysin and glyburide). Matrix matching was used when analyzing multiple matrices in the same run. Samples above the upper limit of quantitation (ULOQ) needed to be diluted into the calibration range using either a pre-extraction or post-extraction dilution approach.
Processed samples were analyzed by LC-MS/MS using a proper method performing within the acceptable sensitivity, selectivity, precision and accuracy. For an analytical run to be accepted, over 75% of the calibration standards in the dual calibration curves needed to be within 20% of the nominal concentrations.
Brain concentrations were compared against plasma concentrations at the corresponding timepoint for the calculation of partition coefficient (Kp).
Unbound drug partition coefficient (Kpuu), defined as the ratio of unbound drug partition across the blood-brain barrier, was calculated using the equation below:
[formula] • Cb: measured total drug concentration in brain • Fub: unbound drug fraction in brain • Cp: measured total drug concentration in plasma • Fup: unbound drug fraction in plasma Compound- or study-specific PK analysis that deviates from the typical procedure might be used when necessary, which will be documented in a study specific protocol included in the data upload.
Mix thoroughly. • This spiked plasma solution is shown in FIG. 1. • 3) Prepare a chilled ‘crash’ solution of internal standard in a solvent solution. • Pipette 200 μL of 25 ng/mL solution of internal standard, CPDPX (8-Cyclopentyl-1,3-dipropylxanthine, Sigma-Aldrich, C101) in 1:1 acetonitrile/methanol solvent solution into a 1 mL 96-well plate. • Chill on ice or refrigerate at 4° C. • This solution becomes the ‘Crash’ plate in FIG. 1. • 4) From remaining spiked plasma, remove 50 μL (T=0 h) of each plasma sample and place into a crash plate which contains 200 μL. To matrix match, add 50 μL of blank buffer to the crashed sample (similar to PPB samples). […] Mix crash plate thoroughly. • From remaining spiked plasma, remove 50 μL (T=4 h) of each plasma sample and place into a crash plate. To matrix match, add 50 μL of blank buffer to the crashed sample (similar to the protein binding samples). • Centrifuge crash plate at 3900 rpm for 10 minutes at 4° C.
% Free=(PAR of buffer side/PAR of plasma side)*100 • PAR—Peak area ratio (PAR)
Fu=% Free/100 • Fu=fraction unbound

| SMILES | solubility at 24 h [1] [µg/mL] | efflux ratio at 120 min, 1 μM [2] | pIC50 [3] | Kp [4] | Brain Kpu,u [4] | Solubility pH 6.8 [1] [ug/mL] |
| --- | --- | --- | --- | --- | --- | --- |
| CC(C)Oc1cc2nn(C34COC(C3)C4)cc2cc1C(=O)Nc1cccn([C@H]2C[C@H]2F)c1=O [Example 68, 2-(2-oxabicyclo[2.1.1]hexan-4-yl)-N-(1-((1S,2R)-2-fluorocyclopropyl)-2-oxo-1,2-dihydropyridin-3-yl)-6-isopropoxy-2H-indazole-5-carboxamide] | 45.3 (≈ 100 µM) | 8.61 | 9.70 | 0.4 |  |  |
| COC[C@@]12CC[C@@](n3cc4cc(C(=O)Nc5cccn(C6CC6)c5=O)c(OC(C)C)nc4n3)(CO1)C2 [Example 30, N-(1-cyclopropyl-2-oxo-1,2-dihydropyridin-3-yl)-6-isopropoxy-2-((1S,4S)-1-(methoxymethyl)-2-oxabicyclo[2.2.1]heptan-4-yl)-2H-pyrazolo[3,4-b]pyridine-5-carboxamide] |  | 2.58 | 9.70 | 0.6 |  |  |
| COCC12CC(n3cc4cc(C(=O)Nc5cccn([C@H]6C[C@H]6C)c5=O)c(OC(C)C)nc4n3)(CO1)C2 [Example 77, 6-isopropoxy-2-(1-(methoxymethyl)-2-oxabicyclo[2.1.1]hexan-4-yl)-N-(1-((1S,2R)-2-methylcyclopropyl)-2-oxo-1,2-dihydropyridin-3-yl)-2H-pyrazolo[3,4-b]pyridine-5-carboxamide] | 51 (≈ 103 µM) | 2.09 | 9.40 | 0.9 |  |  |
| C[C@@]12CC[C@@](n3cc4cc(C(=O)Nc5cccn(C6CC6)c5=O)c(OC5CCC5)cc4n3)(CO1)C2 (single isomer, unassigned) [Example 40] | 19.9 (≈ 41.9 µM) | 1.32 | 9.40 |  | 0.8 |  |
| CC(C)Oc1nc2nn(C34COC(C3)C4)cc2cc1C(=O)Nc1cccn([C@H]2C[C@H]2C)c1=O [Example 80, 2-(2-oxabicyclo[2.1.1]hexan-4-yl)-6-isopropoxy-N-(1-((1S,2R)-2-methylcyclopropyl)-2-oxo-1,2-dihydropyridin-3-yl)-2H-pyrazolo[3,4-b]pyridine-5-carboxamide] | 32.4 (≈ 72.1 µM) | 4.42 | 9.30 | 1 |  |  |
| COCC12CC(n3cc4cc(C(=O)Nc5cccn(C6CC6)c5=O)c(OC(C)C)nc4n3)(CO1)C2 [Example 11, N-(1-cyclopropyl-2-oxo-1,2-dihydropyridin-3-yl)-6-isopropoxy-2-(1-(methoxymethyl)-2-oxabicyclo[2.1.1]hexan-4-yl)-2H-pyrazolo[3,4-b]pyridine-5-carboxamide] | 36 (≈ 75.1 µM) | 4.8 | 9.70 | 0.9 |  |  |
| CC(C)Oc1cc2nn(C34COC(CF)(C3)C4)cc2cc1C(=O)Nc1cccn([C@@H]2C[C@H]2C)c1=O (single isomer, unassigned) [Example 69] | 8.2 (≈ 17.1 µM) | 1.74 | 9.30 | 0.7 |  |  |
| CC(C)Oc1nc2nn(C[C@@H]3CCOC3)cc2cc1C(=O)Nc1cccn(C2CC2)c1=O [Example 4, (S)—N-(1-cyclopropyl-2-oxo-1,2-dihydropyridin-3-yl)-6-isopropoxy-2-((tetrahydrofuran-3-yl)methyl)-2H-pyrazolo[3,4-b]pyridine-5-carboxamide] | 43 (≈ 98.2 µM) | 6.36 | 9.40 | 0.4 |  |  |
| CC(C)Oc1nc2nn([C@@H]3CCCOC3)cc2cc1C(=O)Nc1cccn(C2CC2)c1=O [Example 17, (R)—N-(1-cyclopropyl-2-oxo-1,2-dihydropyridin-3-yl)-6-isopropoxy-2-(tetrahydro-2H-pyran-3-yl)-2H-pyrazolo[3,4-b]pyridine-5-carboxamide] | 50.4 (≈ 115 µM) | 2.6 | 9.70 | 0.5 |  |  |
| COCC12CC(n3cc4cc(C(=O)Nc5cccn(C6CC6)c5=O)c(OC(C)C)cc4n3)(CO1)C2 [Example 12, N-(1-cyclopropyl-2-oxo-1,2-dihydropyridin-3-yl)-6-isopropoxy-2-(1-(methoxymethyl)-2-oxabicyclo[2.1.1]hexan-4-yl)-2H-indazole-5-carboxamide] | 67.7 (≈ 141 µM) | 2.82 | 9.30 | 0.7 |  |  |
| CC(C)Oc1nc2nn(C34COC(C)(C3)C4)cc2cc1C(=O)Nc1cccn([C@H]2C[C@H]2F)c1=O (single isomer, unassigned) [Example 34] | 24.9 (≈ 53.3 µM) | 3.8 |  | 0.7 |  |  |
| CC[C@H](C)Oc1nc2nn(C34COC(C)(C3)C4)cc2cc1C(=O)Nc1cccn(C2CC2)c1=O [Example 15, (S)-6-(sec-butoxy)-N-(1-cyclopropyl-2-oxo-1,2-dihydropyridin-3-yl)-2-(1-methyl-2-oxabicyclo[2.1.1]hexan-4-yl)-2H-pyrazolo[3,4-b]pyridine-5-carboxamide] |  | 1.4 | 9.30 | 0.9 |  |  |
| C[C@@H]1C[C@@H]1n1cccc(NC(=O)c2cc3cn(C45COC(C)(C4)C5)nc3nc2OC2CC2)c1=O [Example 89, 6-cyclopropoxy-2-(1-methyl-2-oxabicyclo[2.1.1]hexan-4-yl)-N-(1-((1S,2R)-2-methylcyclopropyl)-2-oxo-1,2-dihydropyridin-3-yl)-2H-pyrazolo[3,4-b]pyridine-5-carboxamide] | 38.1 (≈ 82.6 µM) | 2.28 | 9.05 |  |  |  |
| CC(C)Oc1cc2nn(C34COC(C3)C4)cc2cc1C(=O)Nc1cccn([C@H]2C[C@H]2C)c1=O [Example 79, 2-(2-oxabicyclo[2.1.1]hexan-4-yl)-6-isopropoxy-N-(1-((1S,2R)-2-methylcyclopropyl)-2-oxo-1,2-dihydropyridin-3-yl)-2H-indazole-5-carboxamide] | 55.8 (≈ 124 µM) | 2.56 | 9.10 |  |  |  |
| CC(C)Oc1cc2nn(C34COC(CF)(C3)C4)cc2cc1C(=O)Nc1cccn([C@H]2C[C@H]2C)c1=O [Example 82, 2-(1-(fluoromethyl)-2-oxabicyclo[2.1.1]hexan-4-yl)-6-isopropoxy-N-(1-((1S,2R)-2-methylcyclopropyl)-2-oxo-1,2-dihydropyridin-3-yl)-2H-indazole-5-carboxamide] | 33.8 (≈ 70.3 µM) | 2.17 | 9.15 |  |  |  |
| COCC12CC(n3cc4cc(C(=O)Nc5cccn([C@H]6C[C@@H]6F)c5=O)c(OC5CCC5)cc4n3)(CO1)C2 (single isomer, unassigned) [Example 58] | 52.3 (≈ 103 µM) | 4.05 | 8.82 |  |  |  |
| C[C@@H]1C[C@@H]1n1cccc(NC(=O)c2cc3cn(C45COC(C4)C5)nc3nc2OC2CC2)c1=O [Example 91, 2-(2-oxabicyclo[2.1.1]hexan-4-yl)-6-cyclopropoxy-N-(1-((1S,2R)-2-methylcycloproyl)-2-oxo-1,2-dihydropyridin-3-yl)-2H-pyrazolo[3,4-b]pyridine-5-carboxamide] | 46.7 (≈ 104 µM) | 5.09 | 8.96 |  |  |  |
| C[C@@H]1C[C@@H]1n1cccc(NC(=O)c2cc3cn([C@@]45CC[C@@H](C4)OC5)nc3nc2OC2CC2)c1=O (single isomer, unassigned) [Example 93] |  | 2.5 | 9.30 |  |  | 47.6 |
| CC12CC(n3cc4cc(C(=O)Nc5cccn(C6CC6)c5=O)c(OC5CCC5)nc4n3)(CO1)C2 [Example 24, 6-cyclobutoxy-N-(1-cyclopropyl-2-oxo-1,2-dihydropyridin-3-yl)-2-(1-methyl-2-oxabicyclo[2.1.1]hexan-4-yl)-2H-pyrazolo[3,4-b]pyridine-5-carboxamide] | 5.53 (≈ 12 µM) | 2.53 | 9.40 |  |  |  |
| COCC12CC(n3cc4cc(C(=O)Nc5cccn([C@H]6C[C@@H]6F)c5=O)c(OC(C)C)cc4n3)(CO1)C2 (single isomer, unassigned) [Example 56] | 63.9 (≈ 129 µM) | 3.31 | 9.10 |  |  |  |
| CC(C)Oc1nc2nn(C34COC(C3)C4)cc2cc1C(=O)Nc1cccn(C2CC2)c1=O [Example 28, 2-(2-oxabicyclo[2.1.1]hexan-4-yl)-N-(1-cyclopropyl-2-oxo-1,2-dihydropyridin-3-yl)-6-isopropoxy-2H-pyrazolo[3,4-b]pyridine-5-carboxamide] | 2.7 (≈ 6.2 µM) | 4.72 | 9.40 |  |  |  |
| CC12CC(n3cc4cc(C(=O)Nc5cccn([C@@H]6C[C@@H]6F)c5=O)c(OC5CCC5)nc4n3)(CO1)C2 [Example 26, 6-cyclobutoxy-N-(1-((1R,2S)-2-fluorocyclopropyl)-2-oxo-1,2-dihydropyridin-3-yl)-2-(1-methyl-2-oxabicyclo[2.1.1]hexan-4-yl)-2H-pyrazolo[3,4-b]pyridine-5-carboxamide] | 1.6 (≈ 3.34 µM) | 4.05 | 8.14 |  |  |  |
| CC(C)Oc1nc2nn([C@H]3CCCOC3)cc2cc1C(=O)Nc1cccn(C2CC2)c1=O [Example 16, (S)—N-(1-cyclopropyl-2-oxo-1,2-dihydropyridin-3-yl)-6-isopropoxy-2-(tetrahydro-2H-pyran-3-yl)-2H-pyrazolo[3,4-b]pyridine-5-carboxamide] | 44.6 (≈ 102 µM) | 2.09 | 9.70 |  |  |  |
| COCC12CC(n3cc4cc(C(=O)Nc5cccn([C@@H]6C[C@H]6F)c5=O)c(OC5CCC5)nc4n3)(CO1)C2 (single isomer, unassigned) [Example 65] | 13 (≈ 25.5 µM) | 3.22 | 9.10 |  |  |  |
| CC(C)Oc1cc2nn([C@@]34CC[C@@](C)(C3)OC4)cc2cc1C(=O)Nc1cccn([C@H]2C[C@@H]2F)c1=O (single isomer, unassigned) [Example 60] | 52.9 (≈ 110 µM) | 1.75 | 9.30 |  |  |  |
